Measurements from US10508090B2, “Sulfonamides as GPR40- and GPR120-agonists” (DOMPÉ FARMACEUTICI S.P.A., priority 2016, dated 2019).

Legend:
[1] = molecular target: T1, human GPR120 (Homo sapiens, UniProt Q5NUL3); test: In vitro Ca2+ mobilization, CHO-k1 cells stably expressing human GPR120; type: cell-based; conditions: for AC50: intracellular calcium, CHO-k1 cells expressing human GPR120, read-out: Ca2+ hGPR120 AC50
T1 construct: expressed in transfected cells; host or cells: CHO-k1
T1 sequence (Q5NUL3 1-361): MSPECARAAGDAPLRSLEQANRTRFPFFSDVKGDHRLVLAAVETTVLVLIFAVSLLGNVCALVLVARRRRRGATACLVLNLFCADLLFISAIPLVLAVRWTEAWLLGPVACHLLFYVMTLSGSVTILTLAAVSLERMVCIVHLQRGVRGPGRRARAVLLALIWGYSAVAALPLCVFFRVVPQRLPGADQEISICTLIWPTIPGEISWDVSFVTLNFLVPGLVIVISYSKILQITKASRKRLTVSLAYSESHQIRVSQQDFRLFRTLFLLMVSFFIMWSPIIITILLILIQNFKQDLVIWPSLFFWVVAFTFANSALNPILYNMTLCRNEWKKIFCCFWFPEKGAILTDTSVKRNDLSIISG
Procedure: (§1) GPR120/40 Activation: In Vitro Ca^2+ Mobilization
(§2) The activation of GPR120/40 by all compounds was determined by measuring changes in intracellular calcium levels using a Ca^2+ sensitive fluorescent dye.
(§3) The experiments were performed using CHO-k1 cells stably expressing the human GPR120 or GPR40. Cells were seeded 10000 cells/well in 384-plates in complete medium and grown overnight at 37° C., 5% CO2. 24 h after seeding, cell culture media was removed and cells were loaded with the fluorescent Ca^2+ indicator (Fluo-8 NW dye in Tyrode's buffer). Dye-loaded cell plates were incubated for 1 h at room temperature under a yellow light sodium lamp.
(§4) Cell were treated with test compounds and controls at 10, 30 and 60 μM. The kinetic response was monitored over a period of 7 minutes (using FLIPRTETRA system). A second injection of 3× concentrated reference agonist at ˜EC50 were then administered to cells and the signal of the emitted fluorescence was measured over a period of additional 3 minutes. The agonist effect is expressed as a percentage of activation, with 100% activation being a result in which the Response Values of the test wells reach a level identical to the one of the Stimulator Controls (alpha linolenic acid reference agonist EC100). 0% activation is a result in which the Response Values of the test wells reach a level identical to the one of the Neutral Controls (assay buffer) in the AGO_KRV (Agonist Kinetic Response Value) response value.

[2] = molecular target: T2, human GPR40 (Homo sapiens, UniProt O14842); test: In vitro Ca2+ mobilization, CHO-k1 cells stably expressing human GPR40; type: cell-based; conditions: for AC50: intracellular calcium, CHO-k1 cells expressing human GPR40, read-out: Ca2+ hGPR40 AC50
T2 construct: expressed in transfected cells; host or cells: CHO-k1
T2 sequence (O14842 whole entry): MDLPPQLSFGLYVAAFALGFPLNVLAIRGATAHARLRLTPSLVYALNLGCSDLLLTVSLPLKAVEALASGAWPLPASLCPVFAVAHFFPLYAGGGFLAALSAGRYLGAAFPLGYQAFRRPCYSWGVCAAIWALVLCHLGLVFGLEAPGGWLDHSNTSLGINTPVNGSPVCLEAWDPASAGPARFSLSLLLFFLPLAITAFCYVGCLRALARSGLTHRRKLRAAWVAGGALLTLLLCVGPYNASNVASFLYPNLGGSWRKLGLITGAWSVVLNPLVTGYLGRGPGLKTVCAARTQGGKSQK
Procedure: as §1, §2, §3, §4

[3] = system: STC-1 cells; test: In vitro GLP-1 secretion in STC-1 cells (ELISA); type: cell-based, murine; conditions: for fold induction at 30 µM: Mus musculus, STC-1, 0.5 h, compound at 30 μM for 30 minutes, STC-1 cells, read-out: GLP-1 RELEASE STC-1, fold of increase over DMSO
Procedure: (§5) GPR120/40 Activation: In Vitro GLP-1 Secretion
(§6) 2×10^5 STC-1 cells were seeded in a 12-plate and 24 hours later were treated with selected compounds. 1×10^6 NCI-H716 cells were differentiated in matrigel-coated 12-plate and treated 48 h hours later.
(§7) The day of the experiment, wells were washed once with 1 ml of PBS and then cells were stimulated with 0.5 ml of DMEM (w/o serum, w/o phenol-red) containing 30 μM of selected compounds in STC1 and 100 μM in differentiated NCIH716 for 30 minutes. DMSO has been used as negative control, α-linolenic acid (ALA) (endogenous agonist) as positive control. After stimulations, supernatants were collected, centrifuged at 4000 rpm for 4′ at 4° C., and used for the GLP1 detection by ELISA.

[4] = system: NCI-H716 cells; test: In vitro GLP-1 secretion in differentiated NCI-H716 cells (ELISA); type: cell-based, human; conditions: for fold induction at 100 µM: Homo sapiens, NCI-H716, 0.5 h, compound at 100 μM for 30 minutes, differentiated NCI-H716 cells, read-out: GLP-1 RELEASE NCI, fold of increase over DMSO
Procedure: as §5, §6, §7

| SMILES | AC50 [1] | AC50 [2] | fold induction at 30 µM [3] | fold induction at 100 µM [4] | agonistic activity on GPR120 (AC50 in the calcium mobilization assay), in words [1] | agonistic activity on GPR40 (AC50 in the calcium mobilization assay), in words [2] | GLP-1 secretion in STC1 (murine) cells, in words [3] | GLP-1 secretion in NCI-H716 (human) cells, in words [4] |
| --- | --- | --- | --- | --- | --- | --- | --- | --- |
| Cc1cc(OCc2ccccc2)cc(C)c1NS(=O)(=O)c1cccc(CCCCCCC(=O)O)c1 [Example 34, 7-(3-(N-(4-(benzyloxy)-2,6-dimethylphenyl)sulfamoyl)phenyl)heptanoic acid] | 7 µM | 12.4 µM | 5.5 ± 0.73 | 4.58 ± 0.26 |  |  |  |  |
| Cc1cc(F)cc(C)c1NS(=O)(=O)c1cccc(CCCCCCC(=O)O)c1 [Example 1, 7-(3-(N-(4-fluoro-2,6-dimethylphenyl)sulfamoyl)phenyl)heptanoic acid] | 5.24 µM | 140 µM | 1.87 ± 0.5 | 1.08 ± 0.1 | low microMolar range | low microMolar range | efficacious | efficacious |
| Cc1cc(N(C)C)cc(C)c1NS(=O)(=O)c1cccc(CCCCCCC(=O)O)c1 [Example 5, 7-(3-(N-(4-(dimethylamino)-2,6-dimethylphenyl)sulfamoyl)phenyl)heptanoic acid] | 7.9 µM | 10.4 µM | 4 ± 0.27 | 1.92 ± 0.14 |  |  |  |  |
| O=C(O)CCCCCCc1cccc(S(=O)(=O)Nc2cccc3c(O)cccc23)c1 [Example 23, 7-{3-[(5-hydroxynaphthalen-1-yl)sulfamoyl]phenyl}heptanoic acid] | 7.1 µM | 8.2 µM | 4.34 ± 0.51 | 4.69 ± 0.41 |  |  |  |  |
| Cc1cc(O)cc(C)c1NS(=O)(=O)c1cccc(CCCCCCC(=O)O)c1 [Example 31, 7-(3-(N-(4-hydroxy-2,6-dimethylphenyl)sulfamoyl)phenyl)heptanoic acid] | 9.3 µM | 3.2 µM | 3.55 ± 0.87 | 3.7 ± 0.56 |  |  |  |  |
| Cc1cc(Cl)cc(C)c1NS(=O)(=O)c1cccc(CCCCCCC(=O)O)c1 [Example 4, 7-(3-(N-(4-chloro-2,6-dimethylphenyl)sulfamoyl)phenyl)heptanoic acid] | 4.36 µM | 41.3 µM | 4.1 ± 0.54 | 1.92 ± 0.57 | low microMolar range | low microMolar range | efficacious | efficacious |
| O=C(O)CCCCCCc1cccc(S(=O)(=O)Nc2nsc(-c3ccccc3)n2)c1 [Example 16, 7-(3-(N-(5-phenyl-1,2,4-thiadiazol-3-yl)sulfamoyl)phenyl)heptanoic acid] | 25.9 µM | 17.2 µM | 1.31 ± 0.32 | 1.69 ± 0.14 |  |  |  |  |
| Cc1cc(F)cc(C)c1C(=O)NS(=O)(=O)c1cccc(CCCCCCC(=O)O)c1 [Example 24, 7-{3-[(4-fluoro-2,6-dimethylbenzoyl)sulfamoyl]phenyl}heptanoic acid] | 5.9 µM | 13.3 µM | 4.19 ± 0.72 | 5.01 ± 0.99 |  |  |  |  |
| O=C(O)CCCCCCc1cccc(S(=O)(=O)NC2=NC3CCCCC3N2)c1 (stereo not shown) [Example 29, 7-(3-(N-(3a,4,5,6,7,7a-hexahydro-1H-benzo[d]imidazol-2-yl)sulfamoyl)phenyl)heptanoic Acid] | 12.4 µM | 8.4 µM | 1.12 ± 0.4 | 2.89 ± 0.81 |  |  |  |  |
| CC1COC(NS(=O)(=O)c2cccc(CCCCCCC(=O)O)c2)=N1 (stereo not shown) [Example 28, 7-(3-(N-(4-methyl-4,5-dihydrooxazol-2-yl)sulfamoyl)phenyl)heptanoic acid] | 16.1 µM | 7.1 µM | 3.64 ± 0.43 | 3.88 ± 1.96 |  |  |  |  |
| Cc1nnc(C)n1NS(=O)(=O)c1cccc(CCCCCCC(=O)O)c1 [Example 21, 7-(3-(N-(3,5-dimethyl-4H-1,2,4-triazol-4-yl)sulfamoyl)phenyl)heptanoic acid] | 17 µM | 7.9 µM | 2.23 ± 0.98 | 2.57 ± 0.91 |  |  |  |  |
| Cc1cc(C(F)(F)F)cc(C)c1NS(=O)(=O)c1cccc(CCCCCCC(=O)O)c1 [Example 6, 7-(3-(N-(2,6-dimethyl-4-(trifluoromethyl)phenyl)sulfamoyl)phenyl)heptanoic acid] | 6 µM | 11.7 µM | 4.2 ± 0.45 | 2.54 ± 0.52 | low microMolar range | low microMolar range | efficacious | efficacious |
| COc1cc(C)c(NS(=O)(=O)c2cccc(CCCCCCC(=O)O)c2)c(C)c1 [Example 8, 7-(3-(N-(4-methoxy-2,6-dimethylphenyl)sulfamoyl)phenyl)heptanoic acid] | 11.7 µM | 4.7 µM | 1.7 ± 0.12 | 2.1 ± 0.08 |  |  |  |  |
| Cc1cc(F)cc(C)c1NS(=O)(=O)c1ccc(CCCCCCC(=O)O)cc1 [Example 25, 7-{4-[(4-fluoro-2,6-dimethylphenyl)sulfamoyl]phenyl}heptanoic acid] | 4.3 µM | 6.1 µM | 4.1 ± 0.78 | 3.2 ± 0.31 |  |  |  |  |
| Cc1nnc(NS(=O)(=O)c2cccc(CCCCCCC(=O)O)c2)[nH]1 [Example 20, 7-(3-(N-(5-methyl-4H-1,2,4-triazol-3-yl)sulfamoyl)phenyl)heptanoic acid] | 6.5 µM | 8.2 µM | 3.36 ± 0.37 | 3.31 ± 0.28 |  |  |  |  |
| O=C(O)CCCCCCc1cccc(S(=O)(=O)Nc2csnc2-c2ccccc2)c1 [Example 30, 7-(3-(N-(3-phenylisothiazol-4-yl)sulfamoyl)phenyl)heptanoic acid] | 37.1 µM | 31.2 µM | 2.94 ± 1.12 | 2.13 ± 1.83 |  |  |  |  |
| Cc1nnc(NS(=O)(=O)c2cccc(CCCCCCC(=O)O)c2)s1 [Example 18, 7-(3-(N-(5-methyl-1,3,4-thiadiazol-2-yl)sulfamoyl)phenyl)heptanoic acid] | 27.8 µM | 22.4 µM | 1.98 ± 0.37 | 1.25 ± 0.8 |  |  |  |  |
| CC/C=C\C/C=C\C/C=C\CCCCCCCC(=O)O [ALA, α-linolenic acid, reference compound] |  |  | 6.61 | 1.52 |  |  |  |  |
